Patent US11413278B2, “Compounds and methods for promoting stress resistance” (priority 2015, dated 2022)
Entries after “also recorded” stand apart in the source; their conditions may differ. Like-named read-outs stand apart in the source and are kept apart here.

Assays:
Type in all cases: cell-based, human
FOXO3 = assay: qPCR analysis of FOXO3-regulated genes; settings: for fold induction at 10 µM: Homo sapiens; for K = Sestrin induction: score
Outline: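 FOXO3 target-gene expression quantified by qPCR normalised to B2M, PPIA and GAPDH, in WI-38 cells after 24 h exposure to 10 μM compound. Some runs used cells first transfected 36 h with 10 nM FOXO3 or NRF2 siRNA and replated ~24 h before dosing.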

NRF2 = assay: qPCR analysis of NRF2-regulated genes; settings: for fold induction at 10 µM: Homo sapiens
Outline: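 Expression of HMOX1, NQO1, GCLC and GSTM1 measured by qPCR relative to B2M, PPIA and GAPDH. Cells were WI-38 fibroblasts exposed 24 hrs to 10 μM compound, with RNA and cDNA prepared via Cells-to-Ct. Where stated, cells were first transfected 36 hrs with FOXO3 or NRF2 siRNA at 10 nM.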

mTOR = mTOR inhibition (RPS6 phosphorylation status), In-Cell Western
Outline: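 Read-out is In-Cell Western near-infrared imaging of phospho-RPS6 (Ser-235/236) against total RPS6, using overnight 4° C primary staining and DyLight 680/800 secondaries. Compounds were given to WI-38 cells for 24 hrs at three doses: 5, 10 and 20 μM.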

[1] = 24 h, Assay 10(m), at 10 uM, qPCR, read-out: Induction of FOXO3-regulated genes: CAT normalized fold-change
[2] = 24 h, Assay 10(m), at 10 uM, qPCR, read-out: Induction of FOXO3-regulated genes: DDB1 normalized fold-change
[3] = 24 h, Assay 10(m), at 10 uM, qPCR, read-out: Induction of FOXO3-regulated genes: SESN1 normalized fold-change
[4] = 24 h, Assay 10(m), at 10 uM, qPCR, read-out: Induction of FOXO3-regulated genes: TXNIP normalized fold-change
[5] = 10 μM, 24 hrs, WI-38 cells, qPCR, normalized to B2M, n = 4, read-out: CAT expression, normalized fold change (FOXO3-regulated gene)
[6] = 10 μM, 24 hrs, WI-38 cells, qPCR, normalized to B2M, n = 4, read-out: SESN1 expression, normalized fold change (FOXO3-regulated gene)
[7] = 10 μM, 24 hrs, WI-38 cells, qPCR, normalized to B2M, n = 4, read-out: TXNIP expression, normalized fold change (FOXO3-regulated gene)
[8] = WI-38 cells, 10 μM, 24 hrs, n=4, qPCR normalized by B2M, read-out: DDB1 Normalized fold change
[9] = WI-38 cells, 10 μM, 24 hrs, n=4, qPCR normalized by B2M, read-out: GADD45A Normalized fold change
[10] = WI-38 cells, 10 μM, 24 hrs, n=4, qPCR normalized by B2M, read-out: SESN1 Normalized fold change
[11] = fold change, qPCR, WI-38 cells, 10 μM, 24 hrs, read-out: Summary of effects on FOXO3-regulated genes: CAT
[12] = fold change, qPCR, WI-38 cells, 10 μM, 24 hrs, read-out: Summary of effects on FOXO3-regulated genes: SESN1
[13] = fold change, qPCR, WI-38 cells, 10 μM, 24 hrs, read-out: Summary of effects on FOXO3-regulated genes: TXNIP
[14] = qPCR, WI-38 cells, 10 μM, n=4, 24 hrs, normalized by B2M, read-out: CAT Normalized fold change
[15] = qPCR, WI-38 cells, 10 μM, n=4, 24 hrs, normalized by B2M, read-out: SOD2 Normalized fold change
[16] = qPCR, WI-38 cells, 10 μM, n=4, 24 hrs, normalized by B2M, read-out: TXNIP Normalized fold change
[17] = 24 h, Assay 12(o), at 10 uM, qPCR, read-out: Induction of NRF2-regulated genes: NQO1 normalized fold-change
[18] = rounded fold change, WI-38 cells, 10 μM, 24 hrs (RP11 for Gr-1D, RP29 for Gr-4D), read-out: Summary of effects on NRF2-regulated genes: HMOX1
[19] = rounded fold change, WI-38 cells, 10 μM, 24 hrs (RP29 for Gr-4D), read-out: Summary of effects on NRF2-regulated genes: NQO1
[20] = 10 μM, 24 hrs, WI-38 cells, qPCR, normalized to B2M, n = 4, read-out: HMOX1 expression, normalized fold change (NRF2-regulated gene)
[21] = 10 μM, 24 hrs, WI-38 cells, qPCR, normalized to B2M, n = 4, read-out: NQO1 expression, normalized fold change (NRF2-regulated gene)
[22] = WI-38 cells, 10 μM, 24 hrs, n=4, qPCR normalized by B2M, read-out: GCLC Normalized fold change
[23] = WI-38 cells, 10 μM, 24 hrs, n=4, qPCR normalized by B2M, read-out: GSTM1 Normalized fold change
[24] = WI-38 cells, 10 μM, 24 hrs, n=4, qPCR normalized by B2M, read-out: HMOX1 Normalized fold change
[25] = WI-38 cells, 10 μM, 24 hrs, n=4, qPCR normalized by B2M, read-out: NQO1 Normalized fold change

**Q.** What does the source list for `COc1ccc(C(=O)/C=C/c2cccc(Cl)c2)c(OC)c1` [Gr-4C]?
**A.** Induction of at least two of five FOXO3-regulated genes (SOD2, GADD45A, CAT, DDB1, TXNIP) (FOXO3; 10 μM, 24 hrs, WI-38): significant induction; also recorded: significant, induction; E = Potential FOXO3 Activation (FOXO3; 2-point score): 0; fold induction at 10 µM (FOXO3; [1]): 1.19; fold induction at 10 µM (FOXO3; [2]): 1.51; fold induction at 10 µM (FOXO3; 24 h, Assay 10(m), at 10 uM, qPCR, read-out: Induction of FOXO3-regulated genes: GADD45A normalized fold-change): 1.23; fold induction at 10 µM (FOXO3; [3]): 1.42; fold induction at 10 µM (FOXO3; [4]): 0.18; fold induction at 10 µM (FOXO3; [5]): 1.19; fold induction at 10 µM (FOXO3; 10 μM, 24 hrs, WI-38 cells, qPCR, normalized to B2M, n = 4, read-out: DDB1 expression, normalized fold change (FOXO3-regulated gene)): 1.51; fold induction at 10 µM (FOXO3; 10 μM, 24 hrs, WI-38 cells, qPCR, normalized to B2M, n = 4, read-out: GADD45A expression, normalized fold change (FOXO3-regulated gene)): 1.23; fold induction at 10 µM (FOXO3; [6]): 1.42; fold induction at 10 µM (FOXO3; [7]): 0.18; fold induction at 10 µM (FOXO3; [8]): 1.51; fold induction at 10 µM (FOXO3; [9]): 1.23; fold induction at 10 µM (FOXO3; [10]): 1.42; fold induction at 10 µM (FOXO3; [11]): 1.19; fold induction at 10 µM (FOXO3; fold change, qPCR, WI-38 cells, 10 μM, 24 hrs, read-out: Summary of effects on FOXO3-regulated genes: DDB1): 1.51; fold induction at 10 µM (FOXO3; fold change, qPCR, WI-38 cells, 10 μM, 24 hrs, read-out: Summary of effects on FOXO3-regulated genes: GADD45A): 1.23; fold induction at 10 µM (FOXO3; [12]): 1.42; fold induction at 10 µM (FOXO3; [13]): 0.18; fold induction at 10 µM (FOXO3; [14]): 1.19; fold induction at 10 µM (FOXO3; [15]): 1.04; fold induction at 10 µM (FOXO3; [16]): 0.179; K = Sestrin induction (FOXO3): 0; E = Potential FOXO3 Activation (FOXO3; summary score): 0; F = Potential NRF2 Activation (NRF2; 2-point score): 2; Potential NRF2 Activation (>=2 target genes induced, by >=1.5-fold) (NRF2; Assay 13(p)): YES; fold induction at 10 µM (NRF2; 24 h, Assay 12(o), at 10 uM, qPCR, read-out: Induction of NRF2-regulated genes: GCLC normalized fold-change): 2.51; fold induction at 10 µM (NRF2; 24 h, Assay 12(o), at 10 uM, qPCR, read-out: Induction of NRF2-regulated genes: GSTM1 normalized fold-change): 1.63; fold induction at 10 µM (NRF2; 24 h, Assay 12(o), at 10 uM, qPCR, read-out: Induction of NRF2-regulated genes: HMOX1 normalized fold-change): 89.5; fold induction at 10 µM (NRF2; [17]): 5; fold induction at 10 µM (NRF2; [18]): 89.5; fold induction at 10 µM (NRF2; rounded fold change, WI-38 cells, 10 μM, 24 hrs (RP29 for Gr-4D), read-out: Summary of effects on NRF2-regulated genes: GSTM1): 1.63; fold induction at 10 µM (NRF2; [19]): 5; fold induction at 10 µM (NRF2; rounded fold change, WI-38 cells, 10 μM, 24 hrs, read-out: Summary of effects on NRF2-regulated genes: GCLC): 2.51; fold induction at 10 µM (NRF2; 10 μM, 24 hrs, WI-38, read-out: Expression of at least two NRF2 target genes): > 1.5; fold induction at 10 µM (NRF2; 10 μM, 24 hrs, WI-38 cells, qPCR, normalized to B2M, n = 4, read-out: GCLC expression, normalized fold change (NRF2-regulated gene)): 2.51; fold induction at 10 µM (NRF2; 10 μM, 24 hrs, WI-38 cells, qPCR, normalized to B2M, n = 4, read-out: GSTM1 expression, normalized fold change (NRF2-regulated gene)): 1.63; fold induction at 10 µM (NRF2; [20]): 89.5; fold induction at 10 µM (NRF2; [21]): 5; fold induction at 10 µM (NRF2; [22]): 2.51; fold induction at 10 µM (NRF2; [23]): 1.63; fold induction at 10 µM (NRF2; [24]): 89.5; fold induction at 10 µM (NRF2; [25]): 5; F = Potential NRF2 Activation (NRF2; summary score): 2; G = mTOR down-regulation (mTOR; 2-point score): 0; G = mTOR down-regulation (mTOR; summary score): 0

**Q.** For `O=[N+]([O-])c1ccccc1S(=O)(=O)Nc1cccc2cccnc12` [Gr-3A], which “E = Potential FOXO3 Activation” value (FOXO3; 2-point score) is on record?
**A.** 0

**Q.** And the fold induction at 10 µM (FOXO3; [1])?
**A.** 0.83

**Q.** And the fold induction at 10 µM (FOXO3; [2])?
**A.** 0.81

**Q.** And the fold induction at 10 µM (FOXO3; [3])?
**A.** 1.21

**Q.** And the fold induction at 10 µM (FOXO3; [4])?
**A.** 0.64

**Q.** What about the fold induction at 10 µM (FOXO3; [5]) of the same molecule?
**A.** 0.87

**Q.** What about the fold induction at 10 µM (FOXO3; [6]) of the same molecule?
**A.** 1.18

**Q.** What about the fold induction at 10 µM (FOXO3; [7]) of the same molecule?
**A.** 0.75

**Q.** What about the fold induction at 10 µM (FOXO3; [8]) of the same molecule?
**A.** 0.969

**Q.** And the fold induction at 10 µM (FOXO3; [9])?
**A.** 1.4

**Q.** What about the fold induction at 10 µM (FOXO3; [10]) of the same molecule?
**A.** 1.18

**Q.** What about the fold induction at 10 µM (FOXO3; [11]) of the same molecule?
**A.** 0.87

**Q.** What about the fold induction at 10 µM (FOXO3; [12]) of the same molecule?
**A.** 1.18

**Q.** What about the fold induction at 10 µM (FOXO3; [13]) of the same molecule?
**A.** 0.75

**Q.** What about the fold induction at 10 µM (FOXO3; [14]) of the same molecule?
**A.** 0.871

**Q.** What about the fold induction at 10 µM (FOXO3; [15]) of the same molecule?
**A.** 1.48

**Q.** And the fold induction at 10 µM (FOXO3; [16])?
**A.** 0.754

**Q.** And the “K = Sestrin induction” value (FOXO3)?
**A.** 0

**Q.** And the “E = Potential FOXO3 Activation” value (FOXO3; summary score)?
**A.** 0

**Q.** And the “F = Potential NRF2 Activation” value (NRF2; 2-point score)?
**A.** 0

**Q.** What about the fold induction at 10 µM (NRF2; [17]) of the same molecule?
**A.** 1.3

**Q.** And the fold induction at 10 µM (NRF2; [18])?
**A.** 1.41

**Q.** And the fold induction at 10 µM (NRF2; [19])?
**A.** 1.37

**Q.** What about the fold induction at 10 µM (NRF2; [20]) of the same molecule?
**A.** 1.41

**Q.** And the fold induction at 10 µM (NRF2; [21])?
**A.** 1.37

**Q.** And the fold induction at 10 µM (NRF2; [22])?
**A.** 1.01

**Q.** And the fold induction at 10 µM (NRF2; [23])?
**A.** 1.35

**Q.** What about the fold induction at 10 µM (NRF2; [24]) of the same molecule?
**A.** 1.41

**Q.** What about the fold induction at 10 µM (NRF2; [25]) of the same molecule?
**A.** 1.37

**Q.** And the “F = Potential NRF2 Activation” value (NRF2; summary score)?
**A.** 0

**Q.** What about the “G = mTOR down-regulation” value (mTOR; 2-point score) of the same molecule?
**A.** 0

**Q.** What about the “G = mTOR down-regulation” value (mTOR; summary score) of the same molecule?
**A.** 0
